System: multiresistant Dd2 strain of Plasmodium falciparum
Experiment: Antiplasmodial activity against Dd2 strain of Plasmodium falciparum ([8-3H]hypoxanthine incorporation)
Assay type: cell-based
Details: 66 h, P. falciparum Dd2, 48 h + 18 h with [8-3H]hypoxanthine, 50% parasite growth inhibition, read-out: Antiplasmodia activity (IC50 class)
Description: For the determination of the antiplasmodial activity of the compounds described above, the multiresistant Dd2 strain of Plasmodium falciparum was used. The incorporation of [8-^3H]hypoxanthine into the parasitic nucleic acids was measured. The plasmodia were incubated at 0.3% parasitaemia and an erythrocyte haematocrit of 2.5% in the presence of different concentrations of the compounds in a final volume of 200 μl. The medium employed was RPMI 1640 which contained 10% of heat-treated human serum and 3 mg/l of gentamycin. In the incubations, the concentrations of the compounds varied from 0.001 to 100 μM. After 48 h, each batch was treated with 50 μl of [8-^3H]hypoxanthine (1 mCi/ml) and incubated for a further 18 h. The cells were filtered off, washed and suspended in 20 μl of scintillation fluid. The radioactive hypoxanthine absorbed by the parasites was then quantified using a scintillation counter. The results were presented graphically and the IC50 value was determined using a fitting function. The value IC50, the ‘inhibition constant’, indicates the value in μMol/l at which 50% parasite growth inhibition occurs (R. E. Desjardins, et al., Antimicrobiol. Agent Chemother. 16, pp. 710-718, 1979; J. D. Chulay, et al., Exp. Parasitol. 55, pp. 138-146, 1983).

Structure (SMILES) | IC50 [µM]
CCCCN1CCN(C(=N)c2cccc(NC(=O)Nc3ccc(S(=O)(=O)NC(C)c4ccc(S(N)(=O)=O)cc4)cc3)c2)CC1 (centres unmarked) [Compound 42, 4-(3-(3-((4-butylpiperazin-1-yl)(imino)methyl)phenyl)ureido)-N-(1-(4-sulfamoylphenyl)ethyl)benzenesulfonamide] | 0.21 to 0.99
N=C(c1cccc(NC(=O)Nc2ccc(S(=O)(=O)Nc3ccc(S(N)(=O)=O)cc3)cc2)c1)N1CCOCC1 [Compound 25, 4-(3-(3-(imino(morpholino)methyl)phenyl)ureido)-N-(4-sulfamoylphenyl)benzenesulfonamide] | ≥ 1
N=C(c1cccc(NC(=O)Nc2ccc(S(=O)(=O)c3ccc([N+](=O)[O-])cc3)cc2)c1)N1CCSC1 [Compound 9, 1-(3-(imino(thiazolidin-3-yl)methyl)phenyl)-3-(4-(4-nitrophenylsulfonyl)phenyl)urea] | ≥ 1
CN1CCN(C(=N)c2cccc(NC(=O)Nc3ccc(S(=O)(=O)Nc4ccc(S(N)(=O)=O)cc4)cc3)c2)CC1 [Compound 26, 4-(3-(3-(imino(4-methylpiperazin-1-yl)methyl)phenyl)ureido)-N-(4-sulfamoylphenyl)benzenesulfonamide] | ≥ 1
CCCCN1CCN(C(=N)c2cccc(NC(=O)Nc3ccc(S(=O)(=O)NCCC)cc3)c2)CC1 [Compound 19, 4-(3-(3-((4-butylpiperazin-1-yl)(imino)methyl)phenyl)ureido)-N-propylbenzenesulfonamide] | ≥ 1
N=C(c1cccc(NC(=O)Nc2ccc(S(=O)(=O)c3ccc(Br)cc3)cc2)c1)N1CCC(C(N)=O)CC1 [Compound 16, 1-((3-(3-(4-(4-bromophenylsulfonyl)phenyl)ureido)phenyl)(imino)methyl)piperidine-4-carboxamide] | 0.02 to 0.2
N=C(c1cccc(NC(=O)Nc2ccc(S(=O)(=O)c3ccc(Br)cc3)cc2)c1)N1CCC(CO)CC1 [Compound 12, 1-(4-(4-bromophenylsulfonyl)phenyl)-3-(3-((4-(hydroxymethyl)piperidin-1-yl)(imino)methyl)phenyl)urea] | ≥ 1
CCCCN1CCN(C(=N)c2cccc(NC(=O)Nc3ccc(S(=O)(=O)NNc4ccc(S(N)(=O)=O)cc4)cc3)c2)CC1 [Compound 40, 4-(2-(4-(3-(3-((4-butylpiperazin-1-yl)(imino)methyl)phenyl)ureido)phenylsulfonyl)hydrazinyl)benzenesulfonamide] | ≥ 1
N=C(c1cccc(NC(=O)Nc2ccc(S(=O)(=O)c3ccc(Br)cc3)cc2)c1)N1CCCC1 [Compound 15, 1-(4-(4-bromophenylsulfonyl)phenyl)-3-(3-(imino(pyrrolidin-1-yl)methyl)phenyl)urea] | 0.02 to 0.2
N=C(c1cccc(NC(=O)Nc2ccc(S(=O)(=O)NCc3ccc(S(N)(=O)=O)cc3)cc2)c1)N1CCN(Cc2ccncc2)CC1 [Compound 45, 4-(3-(3-(imino (4-(pyridin-4-ylmethyl)piperazin-1-yl)methyl)phenyl)ureido)-N-(4-sulfamoylbenzyl)benzenesulfonamide] | 0.21 to 0.99
CCCCN1CCN(C(=N)c2cccc(NC(=O)Nc3ccc(S(=O)(=O)NC)cc3)c2)CC1 [Compound 18, 4-(3-(3-((4-butylpiperazin-1-yl)(imino)methyl)phenyl)ureido)-N-methylbenzenesulfonamide] | ≥ 1
N=C(c1cccc(NC(=O)Nc2ccc(S(=O)(=O)NCc3ccc(S(N)(=O)=O)cc3)cc2)c1)N1CCN(CC2CCCO2)CC1 (centres unmarked) [Compound 68, 4-(3-(3-(imino(4-((tetrahydrofuran-2-yl)methyl)piperazin-1-yl)methyl)phenyl)ureido)-N-(4-sulfamoylbenzyl)benzene sulfonamide] | 0.02 to 0.2
CN(C)C1CCN(C(=N)c2cccc(NC(=O)Nc3ccc(S(=O)(=O)NCc4ccc(S(N)(=O)=O)cc4)cc3)c2)C1 (centres unmarked) [Compound 49, 4-(3-(3-((3-(dimethylamino)pyrrolidin-1-yl)(imino)methyl)phenyl)ureido)-N-(4-sulfamoylbenzyl)benzenesulfonamide] | 0.02 to 0.2
N=C(c1cccc(NC(=O)Nc2ccc(S(=O)(=O)NCc3ccc(S(N)(=O)=O)cc3)cc2)c1)N1CCC(C(N)=O)CC1 [Compound 33, 1-(imino(3-(3-(4-(N-(4-sulfamoylbenzyl)sulfamoyl)-phenyl)ureido)phenyl)methyl)piperidine-4-carboxamide] | 0.02 to 0.2
CCCCN1CCN(C(=N)c2cccc(NC(=O)Nc3ccc(S(=O)(=O)N4CCOCC4)cc3)c2)CC1 [Compound 21, 1-(3-((4-butylpiperazin-1-yl)(imino)methyl)phenyl)-3-(4-(morpholinosulfonyl)phenyl)urea] | ≥ 1
N=C(c1cccc(NC(=O)Nc2ccc(S(=O)(=O)NCc3ccc(S(N)(=O)=O)cc3)cc2)c1)N1CCCC1CN1CCCC1 (centres unmarked) [Compound 50, 4-(3-(3-(imino(2-(pyrrolidin-1-ylmethyl)pyrrolidin-1-yl)methyl)phenyl)ureido)-N-(4-sulfamoylbenzyl)benzenesulfonamide] | 0.02 to 0.2
CC(C)(C)OC(=O)N1CCN(C(=N)c2cccc(NC(=O)Nc3ccc(S(=O)(=O)NCc4ccc(S(N)(=O)=O)cc4)cc3)c2)CC1 [Compound 51, tert-butyl 4-(imino(3-(3-(4-(N-(4-sulfamoylbenzyl)sulfamoyl)phenyl)ureido)phenyl)methyl)piperazine-1-carboxylate] | 0.21 to 0.99
CCN(CCO)C(=N)c1cccc(NC(=O)Nc2ccc(S(=O)(=O)NCc3ccc(S(N)(=O)=O)cc3)cc2)c1 [Compound 30, N-ethyl-N-(2-hydroxyethyl)-3-(3-(4-(N-(4-sulfamoylbenzyl)sulfamoyl)phenyl)ureido)benzimidamide] | 0.21 to 0.99
COC(=O)N1CCN(C(=N)c2cccc(NC(=O)Nc3ccc(S(=O)(=O)Nc4ccc(S(N)(=O)=O)cc4)cc3)c2)CC1 [Compound 24, methyl 4-(imino(3-(3-(4-(N-(4-sulfamoylphenyl)sulfamoyl)phenyl)ureido)phenyl)methyl)piperazine-1-carboxylate] | ≥ 1
CCCOC(=O)N1CCN(C(=N)c2cccc(NC(=O)Nc3ccc(S(=O)(=O)NCc4ccc(S(N)(=O)=O)cc4)cc3)c2)CC1 [Compound 62, propyl 4-(imino(3-(3-(4-(N-(4-sulfamoylbenzyl)sulfamoyl)phenyl)ureido)phenyl)methyl)piperazine-1-carboxylate] | < 0.02
CN1CCN(C(=N)c2cccc(NC(=O)Nc3ccc(S(=O)(=O)c4ccc([N+](=O)[O-])cc4)cc3)c2)CC1 [Compound 8, 1-(3-(imino(4-methylpiperazin-1-yl)methyl)phenyl)-3-(4-(4-nitrophenylsulfonyl)phenyl)urea] | ≥ 1
CCCCCCCN1CCN(C(=N)c2cccc(NC(=O)Nc3ccc(S(=O)(=O)NCc4ccc(S(N)(=O)=O)cc4)cc3)c2)CC1 [Compound 56, 4-(3-(3-((4-heptylpiperazin-1-yl)(imino)methyl)phenyl)ureido)-N-(4-sulfamoylbenzyl)benzenesulfonamide] | 0.02 to 0.2
CCCCN1CCN(C(=N)c2cccc(NC(=O)Nc3ccc(S(=O)(=O)Nc4ccnc5cc(Cl)ccc45)cc3)c2)CC1 [Compound 22, 4-(3-(3-((4-butylpiperazin-1-yl)(imino)methyl)phenyl)ureido)-N-(7-chloroquinolin-4-yl)benzenesulfonamide] | ≥ 1
